Laboratory results reported in patent US11098060B2, “Macrocycle containing aminopyrazole and pyrimidine and pharmaceutical composition and use thereof” (CHIA TAI TIANQING PHARMACEUTICAL GROUP CO., LTD., priority 2017, dated 2021).

Key:
[1] = molecular target: TrkA^G595R (Kinase domain) kinase (Homo sapiens (Human), UniProt P04629, G595R); test: Assay for inhibitory activity (IC50) against TrkA^G595R kinase (HTRF); type: biochemical; conditions: kinase 0.2 nM, TK peptide 1 μM, 120 min at 23° C.
TrkA^WT kinase = TrkA^WT kinase (Homo sapiens (Human), UniProt P04629); test: Assay for inhibitory activity (IC50) against TrkA^WT (HTRF); type: biochemical; conditions: TrkA 1 nM, ATP 40 μM, TK peptide 1 μM, 60 min at 23° C.
[2] = Pharmacokinetic assay in rats, oral; type: in vivo; conditions: rat, male SD rats, 5 mg/kg single intragastric administration, plasma
Protocol: Male SD rats were available from Beijing Vital River Laboratory Animal Technology Co., Ltd. The rats were allocated with three rats per group, and orally administered the suspension of a sample to be tested (5 mg/kg, the suspension is a mixed solution of 10% EtOH, 40% PEG 400 and 50% H2O) by single intragastric administration, respectively. Before the experiment, the animals were fasted overnight, and the fasting time was from 10 hrs before administration to 4 hrs after administration. After administration, a blood sample was taken at 0.25 hr, 0.5 hr, 1 hr, 2 hrs, 4 hrs, 6 hrs, 8 hrs and 24 hrs, respectively. After the animals were narcotized with isoflurane using an anaesthesia machine for small animals, 0.3 mL of whole blood was taken from fundus venous plexus, and placed in a heparin anticoagulant tube. At 4° C., the sample was centrifuged at 4000 rpm for 5 min, and plasma was transferred to a centrifuge tube and preserved at −80° C. until the analysis was started. The sample in plasma was extracted by the protein precipitation method, and the extracted liquid was analyzed by LC/MS/MS.

TrkA^G595R (Kinase domain) kinase, sequence (P04629 510-781 G595R): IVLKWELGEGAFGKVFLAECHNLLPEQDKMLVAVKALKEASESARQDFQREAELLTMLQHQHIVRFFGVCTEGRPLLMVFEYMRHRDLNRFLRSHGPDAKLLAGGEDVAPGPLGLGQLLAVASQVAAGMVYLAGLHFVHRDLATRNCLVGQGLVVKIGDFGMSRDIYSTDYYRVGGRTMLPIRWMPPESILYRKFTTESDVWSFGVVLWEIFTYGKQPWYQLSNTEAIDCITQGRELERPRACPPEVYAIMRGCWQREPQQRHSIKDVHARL
TrkA^WT kinase, sequence (P04629 33-796): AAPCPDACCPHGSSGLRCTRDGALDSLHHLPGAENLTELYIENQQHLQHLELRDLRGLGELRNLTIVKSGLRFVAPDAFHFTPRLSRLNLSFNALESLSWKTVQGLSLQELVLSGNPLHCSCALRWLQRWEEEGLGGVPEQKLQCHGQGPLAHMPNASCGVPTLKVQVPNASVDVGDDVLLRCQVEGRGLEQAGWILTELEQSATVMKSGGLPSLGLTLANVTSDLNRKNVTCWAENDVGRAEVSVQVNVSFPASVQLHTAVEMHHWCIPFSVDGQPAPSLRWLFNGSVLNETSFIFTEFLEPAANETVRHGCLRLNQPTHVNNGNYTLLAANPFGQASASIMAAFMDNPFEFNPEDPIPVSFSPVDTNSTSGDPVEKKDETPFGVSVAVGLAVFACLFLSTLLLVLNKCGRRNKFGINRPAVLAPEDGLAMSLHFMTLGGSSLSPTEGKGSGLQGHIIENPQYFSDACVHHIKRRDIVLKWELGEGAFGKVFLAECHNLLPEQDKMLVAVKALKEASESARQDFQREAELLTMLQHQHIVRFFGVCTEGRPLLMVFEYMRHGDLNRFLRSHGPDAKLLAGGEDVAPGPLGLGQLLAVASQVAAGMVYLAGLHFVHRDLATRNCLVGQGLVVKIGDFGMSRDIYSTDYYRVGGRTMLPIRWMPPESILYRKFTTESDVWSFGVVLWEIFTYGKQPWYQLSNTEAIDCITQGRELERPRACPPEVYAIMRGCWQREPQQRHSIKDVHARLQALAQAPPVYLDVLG

In the case of `Nc1nn2ccc3nc2c1C(=O)NCCCCc1ncc(F)cc1[C@H]1C[C@H](F)CN31` [Example 31, (1^3E,1^4E,2^2R,2^4S)-1^2-amino-2^4,3^5-difluoro-8-aza-1(5,3)-pyrazolo[1,5-a]pyrimidine-3(3,2)-pyridine-2(1,2)-pyrrolidylcyclononanephane-9-one], the IC50 [1] is reported as 1.45 ± 0.11 nM.

`Nc1nn2ccc3nc2c1C(=O)NCCCn1cc(F)cc(c1=O)[C@H]1CCCN31` [Example 22, (1^3E,1^4E,2^2R)-1^2-Amino-3^5-fluoro-3^1,3^2-dihydro-7-aza-1(5,3)-pyrazolo[1,5-a]pyrimidine-3(3,1)-pyridine-2(1,2)-pyrrolidylcyclooctanephane-3^2,8-dione] showed an IC50 (TrkA^WT kinase) of 0.57 ± 0.03 nM.

In the case of `Nc1nn2ccc3nc2c1C(=O)NCCCCOc1ncc(F)cc1[C@H]1C[C@H](F)CN31` [Example 16, (1^3E,1^4E,2^2R,2^4S)-1^2-amino-2^4,3^5-difluoro-4-oxa-9-aza-1(5,3)-pyrazolo[1,5-a] pyrimidine-3(3,2)-pyridine-2(1,2)-pyrrolidylcyclodecanephane-10-one], the IC50 (TrkA^WT kinase) is reported as 0.51 ± 0.05 nM and the IC50 [1] is reported as 0.76 ± 0.14 nM.

Molecule `C[C@H]1CNC(=O)c2c(N)nn3ccc(nc23)N2C[C@@H](F)C[C@@H]2c2cc(F)cnc2O1` [Example 15, (1^3E,1^4E,2^2R,2^4S,5S)-1^2-amino-2^4,3^5-difluoro-5-methyl-4-oxa-7-aza-1(5,3)-pyrazolo[1,5-a] pyrimidine--3(3,2)-pyridine-2(1,2)-pyrrolidylcyclooctanephane-8-one] has an IC50 (TrkA^WT kinase) of 0.45 ± 0.18 nM, an IC50 [1] of 0.53 ± 0.08 nM and an AUC(0-inf) [2] of 494 ng·h/mL. It also gave a Cmax [2] of 285 ng/mL, a Tmax [2] of 0.58 h and a half-life [2] of 1.53 h.

Molecule `Nc1nn2ccc3nc2c1C(=O)NCCCOc1ncc(F)cc1[C@H]1CCCN31` [Example 21, (R,1^3E,1^4E)-1^2-Amino-3^5-fluoro-4-oxa-8-aza-1(5,3)-pyrazol[1,5-a]pyrimidine-3(3,2)-pyridine-2(1,2)-pyrrolidylcyclononanephane-9-one] has an IC50 (TrkA^WT kinase) of 0.4 ± 0.04 nM and an IC50 [1] of 0.85 ± 0.04 nM.

Work on `Nc1nn2ccc3nc2c1C(=O)NCCOc1ccc(F)cc1[C@@H]1CCCN31` [Example 20, (S,1^3E,1^4E)-1^2-amino-3^5-fluoro-4-oxa-7-aza-1(5,3)-pyrazolo [1,5-a]pyrimidine-2(1,2)-pyrrolidine-3(1,2)-benzocyclooctanephane-8-one] yielded an IC50 (TrkA^WT kinase) of 3.8 ± 0.21 nM.

Work on `Nc1nn2ccc3nc2c1C(=O)NCCCOc1ncccc1[C@H]1CCCN31` [Example 6, (R,1^3E,1^4E)-1^2-amino-4-oxa-8-aza-1(5,3)-pyrazolo[1,5-a]pyrimidine-3(3,2)-pyridine-2 (1,2)-pyrrolidylcyclononanephane-9-one] yielded an IC50 (TrkA^WT kinase) of 0.47 ± 0.26 nM.

For `Nc1nn2ccc3nc2c1C(=O)NCCCOc1ncc(F)cc1C1CCCN31` (centres unmarked) [Example 2], the IC50 (TrkA^WT kinase) was 0.57 ± 0.1 nM.

`Nc1nn2ccc3nc2c1C(=O)NCC(F)(F)COc1ncc(F)cc1[C@H]1C[C@H](F)CN31` [Example 35, (1^3E,1^4E,2^2R,2^4S)-1^2-amino-2^4,3^5,6,6-tetrafluoro-4-oxa-8-aza-1(5,3)-pyrazol[1,5-a]pyrimidine-3(3,2)-pyridine-2(1,2)-pyrrolidylcyclononanephane-9-one] gave an IC50 [1] of 1.36 ± 0.02 nM.

Molecule `CN1CCCOc2ncc(F)cc2[C@H]2C[C@H](F)CN2c2ccn3nc(N)c(c3n2)C1=O` [Example 17, (1^3E,1^4E,2^2R,2^4S)-1^2-amino-2^4,3^5-difluoro-8-methyl-4-oxa-8-aza-1(5,3) -pyrazolo[1,5-a] pyrimidine-3(3,2)-pyridine-2(1,2)-pyrrolidylcyclononanephane-9-one] has an IC50 (TrkA^WT kinase) of 0.61 ± 0.06 nM and an IC50 [1] of 1.05 ± 0.16 nM.

For `Nc1nn2ccc3nc2c1C(=O)NCCCCc1cccc(n1)C1CCCN31` (centres unmarked) [Example 3, (1^3E,1^4E)-1^2-amino-4-oxa-8-aza-1(5,3)-pyrazolo[1,5-a]pyrimidine-3(2,6)-pyridine-2 (1,2)-pyrrolidylcyclononanephane-9-one], the IC50 (TrkA^WT kinase) was 0.84 ± 0.12 nM.

Work on `CC1(C)CNC(=O)c2c(N)nn3ccc(nc23)N2C[C@@H](F)CC2c2cc(F)cnc2OC1` (some centres unmarked) [Example 18, (1^3E,1^4E,2^2R,2^4S)-1^2-amino-2^4,3^5-difluoro-6,6-dimethyl-4-oxa-8-aza-1(5,3)-pyrazolo [1,5-a]pyrimidine-3(3,2)-pyridine-2(1,2)-pyrrolidylcyclononanephane-9-one] yielded an IC50 [1] of 1.24 ± 0.15 nM.

With `C[C@@H]1COc2ncc(F)cc2[C@H]2C[C@H](F)CN2c2ccn3nc(N)c(c3n2)C(=O)N1` [Example 19, (1^3E,1^4E,2^2R,2^4S,6R)-1^2-amino-2^4, 3^5-difluoro-6-methyl-4-oxa-7-aza-1(5,3)-pyrazolo[1,5-a] pyrimidine-3(3,2)-pyridine-2(1,2)-pyrrolidylcyclooctanephane-8-one] the IC50 [1] was 0.73 ± 0.07 nM.

For `Nc1nn2ccc3nc2c1C(=O)NCCCn1cc(F)cc(c1=O)C1CCCN31` (centres unmarked) [Example 24, (1^3E,1^4E)-1^2-amino-3^5-fluoro-3^1,3^2-dihydro-7-aza-1(5,3)-pyrazolo[1,5-a]pyrimidine-3(3,1)-pyridine-2(1,2)-pyrrolidylcyclooctanephane-3^2,8-dione], the IC50 (TrkA^WT kinase) was 0.85 ± 0.07 nM.

Molecule `Nc1nn2ccc3nc2c1C(=O)NCCOc1ncccc1C1CCCN31` (centres unmarked) [Example 11, (1^3E, 1^4E)-1^2-amino-4-oxa-7-aza-1(5,3)-pyrazolo[1,5-a]pyrimidine-3(3,2)-pyridine-2 (1,2)-pyrrolidylcyclooctanephane-8-one] has an IC50 (TrkA^WT kinase) of 1.04 ± 0.34 nM.

`Nc1nn2ccc3nc2c1C(=O)NCCOc1ccc(F)cc1[C@H]1CCCN31` [Example 8, (R,1^3E,1^4E)-1^2-amino-3^5-fluro-4-oxa-7-aza-1(5,3)-pyrazolo[1,5-a]pyrimidine-2(1,2)-pyrrolidine-3(1,2)-benzocyclooctanephane-8-one] gave an IC50 (TrkA^WT kinase) of 0.41 ± 0.04 nM and an IC50 [1] of 2.08 ± 0.45 nM.

Molecule `Nc1nn2ccc3nc2c1C(=O)NCCCOc1ncc(F)cc1C1C[C@@H](F)CN31` (some centres unmarked) [Example 13, (1^3E,1^4E, 2^2R,2^4R)-1^2-amino-2^4,3^5-difluoro-4-oxa-8-aza-1(5,3)-pyrazolo[1,5-a]pyrimidine-3(3,2)-pyridine-2 (1,2)-pyrrolidylcyclononanephane-9-one] has an IC50 (TrkA^WT kinase) of 0.64 ± 0.02 nM.

`C[C@H]1CNC(=O)c2c(N)nn3ccc(nc23)N2CCC[C@@H]2c2cc(F)ccc2O1` [Example 32, (1^3E,1^4E,2^2R,5S)-1^2-amino-3^5-fluoro-5-methyl-4-oxa-7-aza-1(5,3)-pyrazolo[1,5-a]pyrimidine-(1,2)-pyrrolidine-3(1,2)-benzocyclooctanephane-8-one] showed an IC50 [1] of 1.28 ± 0.05 nM.

With `Nc1nn2ccc3nc2c1C(=O)NCCCOc1ccc(F)cc1[C@H]1CCCN31` [Example 10, (R,1^3E,1^4E)-1^2-amino-3^5-fluro-4-oxa-8-aza-1(5,3)-pyrazolo[1,5-a]pyrimidine-2(1,2)-pyrrolidine-3(1,2)-benzocyclononanephane-9-one] the IC50 (TrkA^WT kinase) was 0.8 ± 0.21 nM and the IC50 [1] was 1.92 ± 0.1 nM.

Molecule `Nc1nn2ccc3nc2c1C(=O)NCCOc1ncccc1[C@H]1CCCN31` [Example 5, (R,1^3E,1^4E)-1^2-amino-4-oxa-7-aza-1(5,3)-pyrazolo[1,5-a]pyrimidine-3(3,2)-pyridine-2 (1,2)-pyrrolidylcyclooctanephane-8-one] has an IC50 (TrkA^WT kinase) of 0.37 ± 0.04 nM.

`Nc1nn2ccc3nc2c1C(=O)NCCOc1ncc(F)cc1[C@H]1C[C@@H](O)CN31` [Example 9, (1^3E,1^4E,2^2R,2^4R)-1^2-amino-3^5fluoro-2^4-hydroxy-4-oxa-7-aza-1(5,3)-pyrazolo[1,5-a] pyrimidine-3(3,2)-pyridine-2(1,2)-pyrrolidylcyclooctanephane-8-one] showed an IC50 (TrkA^WT kinase) of 0.44 ± 0.12 nM and an IC50 [1] of 0.84 ± 0.14 nM.

`C[C@@H]1CCc2ncc(F)cc2[C@H]2CCCN2c2ccn3nc(N)c(c3n2)C(=O)N1` [Example 28, (1^3E,1^4E,2^2R,6R)-1^2-amino-3^5-fluoro-6-methyl-7-aza-1(5,3)-pyrazolo[1,5-a]pyrimidine 3(3,2)-pyridine-2(1,2) pyrrolidylcyclooctanephane-8-one] showed an IC50 (TrkA^WT kinase) of 0.31 ± 0.03 nM and an IC50 [1] of 1.01 ± 0.36 nM.

Work on “(1^3E,1^4E,2^2R,2^4S)-1^2-Amino-2^4,3^5-difluoro-4-oxa-8-aza-1(5,3)-pyrazolo[1,5-a]pyrimidin-3(3,2)-pyridine-2(1,2)-pyrrolidylcyclononanephane-9-one [Example 12]” yielded an IC50 (TrkA^WT kinase) of 0.72 ± 0.04 nM and an IC50 [1] of 0.34 ± 0.04 nM.

`Nc1nn2ccc3nc2c1C(=O)NCCCc1ncc(F)cc1[C@H]1C[C@H](F)CN31` [Example 27, (1^3E,1^4E,2^2R,2^4S)-1^2-amino-2^4,3^5-difluoro-7-aza-1(5,3)-pyrazolo[1,5-a]pyrimidine-3(3,2)-pyridine-2(1,2)-pyrrolidylcyclooctanephane-8-one] showed an IC50 (TrkA^WT kinase) of 0.21 ± 0.03 nM and an IC50 [1] of 0.68 ± 0.26 nM.

Molecule `C[C@H]1CCc2ncc(F)cc2[C@H]2C[C@H](F)CN2c2ccn3nc(N)c(c3n2)C(=O)N1` [Example 29, (1^3E,1^4E,2^2R,24S,6S)-1^2-amino-2^4,3^5-difluoro-6-methyl-7-aza-1(5,3)-pyrazolo[1,5-a]pyrimidine-3(3,2)-pyridine-2(1,2) pyrrolidylcyclooctanephane-8-one] has an IC50 (TrkA^WT kinase) of 0.25 ± 0.02 nM and an IC50 [1] of 1.08 ± 0.24 nM.

`Nc1nn2ccc3nc2c1C(=O)NCCOc1ncc(F)cc1[C@H]1CCCN31` [Example 33, (R,1^3E,1^4E)-1^2-amino-3^5-fluoro-4-oxa-7-aza-1(5,3)-pyrazo[1,5-a]pyrimidine-3(3,2)-pyridine-2(1,2)-pyrrolidylcyclooctanephane-8-one] gave an AUC(0-inf) [2] of 513 ng·h/mL, a Cmax [2] of 142 ng/mL and a Tmax [2] of 0.5 h. The half-life [2] was 4.22 h.
